Assay [1] deals with T1, Human Fibroblast Activation Protein (FAP) (Homo sapiens, UniProt Q12884).
T1 sequence (Q12884 1-760): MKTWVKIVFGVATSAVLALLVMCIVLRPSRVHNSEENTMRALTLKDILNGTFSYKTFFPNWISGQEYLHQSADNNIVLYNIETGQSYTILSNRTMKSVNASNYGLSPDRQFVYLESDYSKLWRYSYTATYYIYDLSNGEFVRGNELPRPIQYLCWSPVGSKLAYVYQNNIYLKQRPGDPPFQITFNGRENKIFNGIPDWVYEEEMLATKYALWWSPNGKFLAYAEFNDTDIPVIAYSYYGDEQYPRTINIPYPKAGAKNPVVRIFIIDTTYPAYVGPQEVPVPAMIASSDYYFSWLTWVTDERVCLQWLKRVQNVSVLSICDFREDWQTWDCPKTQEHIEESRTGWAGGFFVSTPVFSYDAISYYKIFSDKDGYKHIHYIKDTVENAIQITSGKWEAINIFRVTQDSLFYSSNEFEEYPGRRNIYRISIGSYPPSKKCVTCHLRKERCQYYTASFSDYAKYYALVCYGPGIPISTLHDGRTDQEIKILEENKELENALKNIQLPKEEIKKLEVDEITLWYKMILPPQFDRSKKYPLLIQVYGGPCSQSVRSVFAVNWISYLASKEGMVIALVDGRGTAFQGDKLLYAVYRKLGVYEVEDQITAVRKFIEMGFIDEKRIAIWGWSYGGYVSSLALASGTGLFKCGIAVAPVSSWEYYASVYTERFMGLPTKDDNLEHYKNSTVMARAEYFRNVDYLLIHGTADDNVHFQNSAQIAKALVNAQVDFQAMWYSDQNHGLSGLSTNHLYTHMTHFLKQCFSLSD
The assay can be described thus: Enzyme inhibition assay against human FAP (substrate Z-GP-AMC), Example 1. The format is biochemical. The settings on record: human FAP 5 ng/well, 50 μM Z-GP-AMC; Ki from IC50 by Cheng-Prusoff. In short, it runs like this: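 FAP (5 ng/well) preincubated 10 min at RT with peptide (10^−6 to 10^−12), then 50 μM Z-GP-AMC added for 1 h at RT, protected from light. Buffer 50 mM Tris-HCl, 1 M NaCl, 1 mg/mL BSA, pH 7.5; fluorescence at ex/em 360/460. IC50 from non-linear regression, converted to Ki via Cheng-Prusoff using known substrate Km.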

For the next assay, the target named is human DPPIV (Homo sapiens, UniProt P27487). The experiment in a line: Grating-coupled interferometry (GCI) binding kinetics. The protocol:
(§1) The enzyme inhibition assay was performed to determine inhibitor constant (i.e., Ki) values against human FAP, mouse FAP, human dipeptidyl peptidase 4 (DPPIV) and human prolyl endopeptidase (PREP). Z-GP-AMC was used as substrate for human FAP, mouse FAP and human PREP. GP-AMC was used as substrate for human DPPIV. To perform the assay, VMT-FAP-2-59 at varying concentrations (i.e. 10^−6 to 10^−12) were incubated with 5 ng hFAP, 5 ng mFAP, 2.5 ng DPPIV, or 5 ng PREP in a black 96-well plate for 10 minutes at RT on a shaker plate. The substrate was added to give a final concentration of 50 μM for Z-GP-AMC and GP-AMC. The total reaction volume per well was 100 μL The reaction was allowed to incubate at RT on a shaker plate for 1 hour protected from light, and then fluorescence was read with a BioTek Synergy LX plate reader at an ex/em (360/40 and 460/40). Experiments were performed in at least duplicate. Buffer only, buffer/enzymes, buffer/substrate and enzyme only were included as controls. Data was plotted in GraphPad Prism and non-linear regression used to calculate IC50 values. Binding kinetics (Kd) of VMT-FAP-2-59 against human FAP, human DPPIV and human PREP were also determined by grating-coupled interferometry (GCI). hFAP, hDPPIV and hPREP proteins were fixed on PCH (N=3) chips or PCP (N=2). […] On PCP chips, binding affinity of VMT-FAP-2-29 to hFAP was determined from 39 pM to 20 nM. Binding affinity to hDPPIV and hPREP was determined at concentration from 39 pM to 50 nM.

The target in the next assay is T2, human PREP (Homo sapiens, UniProt P48147).
T2 sequence (P48147 1-710): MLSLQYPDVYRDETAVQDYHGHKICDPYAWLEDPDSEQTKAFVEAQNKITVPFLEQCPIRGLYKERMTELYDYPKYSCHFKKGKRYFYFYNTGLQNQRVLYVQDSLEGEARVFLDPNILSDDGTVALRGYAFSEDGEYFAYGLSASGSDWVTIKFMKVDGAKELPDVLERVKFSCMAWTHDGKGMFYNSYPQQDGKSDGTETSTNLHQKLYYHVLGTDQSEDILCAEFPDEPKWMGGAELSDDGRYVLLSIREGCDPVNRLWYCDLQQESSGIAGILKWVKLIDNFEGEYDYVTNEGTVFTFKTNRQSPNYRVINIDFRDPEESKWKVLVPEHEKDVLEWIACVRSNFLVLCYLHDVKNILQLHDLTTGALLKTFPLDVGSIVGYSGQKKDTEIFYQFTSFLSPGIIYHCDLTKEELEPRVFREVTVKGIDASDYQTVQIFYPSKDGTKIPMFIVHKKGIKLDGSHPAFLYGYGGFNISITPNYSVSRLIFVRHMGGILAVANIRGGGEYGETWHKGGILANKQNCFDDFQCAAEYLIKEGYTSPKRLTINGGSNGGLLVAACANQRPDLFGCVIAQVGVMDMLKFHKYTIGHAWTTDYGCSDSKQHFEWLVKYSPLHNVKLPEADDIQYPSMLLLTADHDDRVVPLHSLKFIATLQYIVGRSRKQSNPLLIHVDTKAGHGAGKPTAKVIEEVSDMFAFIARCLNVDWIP
The description is as above. As to the method:
as §1

A further assay addresses T3, human FAP (Homo sapiens, UniProt Q12884).
T3 sequence (Q12884 1-760): T1 sequence (Q12884 1-760)
The assay is described as above. The settings on record: GCI on PCH/PCP chips. As to the method: as §1

*1 amine or outer side, *2 acyl side, *3 side chain or, on linkers, in order; H or OH if unused. Where a SMILES comes first, the peptide text is derived from it. Bridges are numbered along the chain shown (N, C = ends). The star is where a group is joined. X1 = NC(=O)CN1CCN(CC(=O)O)CCN(CC(=O)*)CCN(CC(=O)O)CC1; oXylylene = c1ccc(C[*:2])c(C[*:1])c1; PEG2 = NCCOCCOCCC(=O)O

The term Ki denotes a dissociation constant, usually derived from enzyme kinetics or from competition with a known ligand. Usually Kd stands for a measure of binding affinity in units of concentration.

Sequence of human DPPIV (P27487 whole entry): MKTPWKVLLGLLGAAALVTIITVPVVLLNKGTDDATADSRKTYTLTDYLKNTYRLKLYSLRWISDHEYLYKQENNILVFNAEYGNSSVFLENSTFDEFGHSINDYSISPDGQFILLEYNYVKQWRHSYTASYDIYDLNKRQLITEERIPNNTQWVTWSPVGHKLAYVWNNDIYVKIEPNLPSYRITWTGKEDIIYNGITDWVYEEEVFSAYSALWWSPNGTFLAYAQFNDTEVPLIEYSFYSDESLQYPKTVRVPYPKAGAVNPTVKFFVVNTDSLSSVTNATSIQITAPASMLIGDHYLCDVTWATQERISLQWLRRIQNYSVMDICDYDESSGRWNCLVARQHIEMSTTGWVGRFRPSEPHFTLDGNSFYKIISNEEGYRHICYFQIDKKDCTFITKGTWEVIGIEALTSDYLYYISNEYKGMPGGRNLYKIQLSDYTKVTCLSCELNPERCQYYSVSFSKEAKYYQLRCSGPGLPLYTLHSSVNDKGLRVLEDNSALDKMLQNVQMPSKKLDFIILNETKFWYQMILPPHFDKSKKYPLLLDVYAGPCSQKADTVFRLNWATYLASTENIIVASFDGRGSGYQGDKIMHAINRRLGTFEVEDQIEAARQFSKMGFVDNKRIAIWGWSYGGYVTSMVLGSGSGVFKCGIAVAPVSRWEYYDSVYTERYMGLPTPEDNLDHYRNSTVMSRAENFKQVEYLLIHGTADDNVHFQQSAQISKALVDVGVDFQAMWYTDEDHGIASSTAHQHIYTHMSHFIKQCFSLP

As for `C[C@@H](O)[C@@H]1NC(=O)[C@@H](NC(=O)CCOCCOCCNC(=O)CN2CCN(CC(=O)O)CCN(CC(N)=O)CCN(CC(=O)O)CC2)CSCc2ccccc2CSC[C@@H](C(N)=O)NC(=O)[C@H](Cc2c[nH]c3ccccc23)NC(=O)[C@H](Cc2c[nH]c3ccccc23)NC(=O)[C@H](CCC(N)=O)NC(=O)[C@H](CCC(=O)O)NC(=O)[C@H](Cc2c[nH]c3ccccc23)NC(=O)[C@@H]2CCCN2C1=O` [VMT-FAP-2-59, PSC-PEG2-[C(oXdB)TPWEQWWC]-NH2] ({X1-PEG2}-CTPWEQWWC-NH2; linker 1-9 via oXylylene), the Ki in assay [1] is 0.36 nM. Besides, the Kd entry at human DPPIV is “No binding”; at human PREP, “No binding”; at human FAP it was 2 nM.

For the origin of these results see patent US12514938B2, “Fibroblast activation protein targeting peptides” (PERSPECTIVE THERAPEUTICS, INC., priority 2023, dated 2026).
